Experimental data taken from patent US5739294A, “Bicyclopol yazamacrocyclophosphonic acid complexes for use as contrast agents” (priority 1994, dated 1998).

What was measured:
[1] = percent metal as a complex (Sephadex column, ^153 Sm tracer); assay type: physicochemical; details: 1:1 ligand/metal, SmCl3 3×10^-4 M in 0.01N HCl
Experimental: A stock ^159 GdCl3 (or ^153 SmCl3) solution was prepared by adding 2 μL of 3×10^-4 M ^159 GdCl3 in 0.1N HCl to 2 mL of a 3×10^-4 M GdCl3 carrier solution. Appropriate ligand solutions were then prepared in deionized water. The 1:1 ligand/metal complexes were then prepared by combining the ligands (dissolved in 100-500 μL of deionized water) with 2 mL of the stock ^159 GdCl3 solution, followed by through mixing to give an acidic solution (pH=2). The pH of the solution was then raised to 7.0 using 0.1N NaOH. The percent metal as a complex was then determined by passing a sample of the complex solution through a Sephadex™ G-50 column, eluting with 4:1 saline ([…]) and collecting 2×3 mL fractions. The amount of radioactivity in the combined elutions was then compared with that left on the resin (non-complexed metal is retained on the resin). […]
A solution of the ligand of Example 1 was prepared by dissolving 3.8 mg of ligand/0.517 mL of deionized water (pH=2). […] After thorough mixing, the percent metal as a complex was determined by passing a sample of the complex solution through a Sephadex™ column, eluting with 4:1 saline (0.85% NaCl/NH4 OH), and collecting 2×3 mL fractions. The amount of radioactivity in the combined elutions was then compared with that left on the resin. […] By this method complexation was determined to be 98%. […]

[2] = biodistribution, percent of injected dose in tissues of rats; assay type: in vivo, Sprague Dawley rats; details: rat, tail vein; for % injected dose, Blood: blood assumed 7% of body weight; for % injected dose, Muscle: muscle assumed 43% of body weight; for % injected dose, Bone: percent dose in femur × 25
Experimental: Sprague Dawley rats were allowed to acclimate for five days then injected with 100 μL of the complex solution via a tail vein. The rats weighed between 150 and 200 g at the time of injection. […] The amount of radioactivity in each tissue was determined by counting in a NaI scintillation counter coupled to a multichannel analyzer. The counts were compared to the counts in 100 μL standards in order to determine the percentage of the dose in each tissue or organ.
The percent dose in blood was estimated assuming blood to be 7% of the body weight. The percent dose in bone was estimated by multiplying the percent dose in the femur by 25. The percent dose in muscle was estimated assuming muscle to be 43% of the body weight. […]

[3] = in vivo; cited from earlier work
[4] = compared with Magnevist; cited from earlier work
[5] = MRI imaging experiments in rats; assay type: in vivo, Sprague Dawley rat; details: rat, intramuscular, 0.05-0.1 mmol Gd/kg
Experimental: Injectable solutions were first prepared (0.5M) by dissolving the appropriate amount of each complex in 2 mL of deionized water. The pH of the solutions were then adjusted to 7.4 using 1M HCl or NaOH as needed. The total Gd content of each solution was then determined by ICP analysis.
An anesthetized Sprague Dawley rat was injected intramuscularly with one of the metal solutions described above at a dose of 0.05-0.1 mmol Gd/kg body weight. Images were then taken at various time intervals and compared with a non-injected control at time 0.

Compound | % injected dose, Brain ([2]; 2 hours post injection) | % injected dose, Heart ([2]; 2 hours post injection) | % injected dose, Kidney ([2]; 2 hours post injection) | % injected dose, Large Intestine ([2]; 2 hours post injection) | % injected dose, Liver ([2]; 2 hours post injection) | % injected dose, Lung ([2]; 2 hours post injection) | % injected dose, Small Intestine ([2]; 2 hours post injection) | % injected dose, Spleen ([2]; 2 hours post injection) | % injected dose, Stomach ([2]; 2 hours post injection) | % injected dose, Blood ([2]; 2 hours post injection) | % injected dose, Muscle ([2]; 2 hours post injection) | % injected dose, Bone ([2]; 2 hours post injection) | also measured
^153 Sm-3,6,9,15-tetraazabicyclo[9.3.1]pentadeca-1(15),11,13-triene-3,6,9-trimethylenephosphonic acid [^153 Sm-PCTMP] |  |  |  |  |  |  |  |  |  |  |  |  | complexation (percent metal as a complex) [1]: 98%; % injected dose, Kidney ([2]; 30 min (general procedure)): 1.42%; % injected dose, Liver ([2]; 30 min (general procedure)): 0.99%; % injected dose, Spleen ([2]; 30 min (general procedure)): 0.07%; % injected dose, Blood ([2]; 30 min (general procedure)): 6.27%; % injected dose, Muscle ([2]; 30 min (general procedure)): 4.77%; % injected dose, Bone ([2]; 30 min (general procedure)): 34.87%
O=C(O)CN1CCN(CP(=O)(O)O)CCN(CC(=O)O)Cc2cccc(n2)C1.[153Sm] [^153 Sm-PC2A1P] | 0.01% | 0.04% | 0.93% | 0.12% | 1.46% | 0.06% | 13.10% | 0.02% | 0.25% | 0.36% | 1.00% | 47.98% | 
CC(O)CN1CCN(CC(=O)[O-])CCN(CC(=O)[O-])CCN(CC(=O)[O-])CC1.[Gd+3] (centres unmarked) [PROHANCE, [1,4,7-tris(carboxymethyl)-10-(2-hydroxypropyl)-1,4,7,10-tetraazacyclododecanato]-gadolinium] |  |  |  |  |  |  |  |  |  |  |  |  | distribution [3]: freely distributes in extracellular fluid; elimination [3]: efficient elimination through the renal system; side effects [4]: fewer side effects than Magnevist
CNC[C@H](O)[C@@H](O)[C@H](O)[C@H](O)CO.CNC[C@H](O)[C@@H](O)[C@H](O)[C@H](O)CO.O=C([O-])CN(CCN(CC(=O)[O-])CC(=O)O)CCN(CC(=O)[O-])CC(=O)O.[Gd+3] [MAGNEVIST, complex of gadolinium with diethylenetriaminepentaacetic acid] |  |  |  |  |  |  |  |  |  |  |  |  | distribution [3]: freely distributes in extracellular fluid; elimination [3]: efficient elimination through the renal system
CCCCOP(=O)([O-])CN1CCN(CP(=O)([O-])OCCCC)Cc2cccc(n2)CN(CP(=O)([O-])OCCCC)CC1.[153Sm+3] [^153 Sm-PMBHE] | 0.00% | 0.02% | 0.43% | 0.77% | 2.70% | 0.04% | 57.89% | 0.05% | 0.08% | 0.14% | 1.09% | 3.73% | 
CCCOP(=O)([O-])CN1CCN(CP(=O)([O-])OCCC)Cc2cccc(n2)CN(CP(=O)([O-])OCCC)CC1.[153Sm+3] [^153 Sm-PMPHE] | 0.00% | 0.08% | 1.55% | 2.17% | 4.14% | 0.12% | 10.71% | 0.05% | 0.44% | 0.25% | 1.19% | 10.86% | 
O=P(O)(O)CN1CCN(CP(=O)(O)O)Cc2cccc(n2)CN(CP(=O)(O)O)CC1.[Gd] [Gd-PCTMP] |  |  |  |  |  |  |  |  |  |  |  |  | MR image enhancement, kidney [5]: kidney enhancement; bone localization in MR image [5]: bone localization in the shoulder, spine and sternum
